Test results taken from ChEMBL document CHEMBL2439961, “Synthesis and evaluation of the cell cycle arrest and CT DNA interaction properties of 4β-amino-4'-O-demethyl-4-deoxypodophyllotoxins” (Bioorg Med Chem, 2013).
Activity calls are given as the source filed them. The rule behind the calls is not given here.

Experiments:
[1] = system: A549; assay: Cytotoxicity against human A549 cells after 48 hrs by MTT assay; type: functional, cell-based; settings: A549, 48 h
[2] = system: HCT-8; assay: Cytotoxicity against human HCT8 cells after 48 hrs by MTT assay; type: functional, cell-based; settings: HCT-8, 48 h
[3] = system: HeLa; assay: Cytotoxicity against human HeLa cells after 48 hrs by MTT assay; type: functional, cell-based
[4] = system: HepG2; assay: Cytotoxicity against human HepG2 cells after 48 hrs by MTT assay; type: functional, cell-based; settings: HepG2, 48 h
[5] = system: HeLa; assay: Induction of morphological changes in human HeLa cells by immunofluorescence analysis; type: functional, cell-based; settings: TDE = time-dependent effect
[6] = system: DNA; assay: Binding affinity to calf thymus DNA at 0.5 mM after 5 mins by fluorescence analysis; type: nucleic-acid assay; settings: Bos taurus
[7] = system: HeLa; assay: Induction of apoptosis in human HeLa cells assessed as cell shrinkage, nuclear fragmentation and condensation dispersed throughout cytoplasm at 0.5 uM by immunofluorescence analysis; type: functional, cell-based; settings: TDE = time-dependent effect
[8] = system: HeLa; assay: Cell cycle arrest in human HeLa cells assessed as accumulation at sub-G1 phase at 1 uM after 24 hrs using propidium iodide staining by FACS analysis (reference value: 0%); type: functional
[9] = system: HeLa; assay: Induction of microtubule depolymerization in human HeLa cells assessed as short and dense microtubule networks at 0.5 uM using DAPI staining by immunofluorescence analysis; type: cell-based; settings: TDE = time-dependent effect
[10] = system: HeLa; assay: Increase of caspase-3 protein level in human HeLa cells Western blotting analysis; type: functional, cell-based
[11] = system: HeLa; assay: Induction of morphological changes in human HeLa cells after 48 hrs by immunofluorescence analysis; type: functional, cell-based
[12] = system: HeLa; assay: Induction of apoptosis in human HeLa cells assessed as early apoptotic cells at 0.25 uM after 24 hrs using annexin V-FITC/PI and Hoechst 33258 staining by FACS analysis (reference value: 2.34%); type: functional
[13] = system: HeLa; assay: Induction of apoptosis in human HeLa cells assessed as early apoptotic cells at 0.5 uM after 24 hrs using annexin V-FITC/PI and Hoechst 33258 staining by FACS analysis (reference value: 2.34%); type: functional
[14] = system: HeLa; assay: Cell cycle arrest in human HeLa cells assessed as accumulation at G2/M phase at 0.5 uM after 24 hrs using propidium iodide staining by FACS analysis (reference value: 24.4%); type: functional
[15] = system: HeLa; assay: Induction of microtubule depolymerization in human HeLa cells assessed as short and dense microtubule networks at 0.5 uM after 48 hrs using DAPI staining by immunofluorescence analysis; type: cell-based
[16] = system: HeLa; assay: Cell cycle arrest in human HeLa cells assessed as accumulation at G1 phase at 0.5 uM after 24 hrs using propidium iodide staining by FACS analysis (reference value: 48.5%); type: functional
[17] = system: HeLa; assay: Increase of cyclin-B1 protein level in human HeLa cells Western blotting analysis; type: functional, cell-based
[18] = system: HeLa; assay: Cell cycle arrest in human HeLa cells assessed as accumulation at S phase at 0.5 uM after 24 hrs using propidium iodide staining by FACS analysis (reference value: 27.1%); type: functional
[19] = system: HeLa; assay: Increase of CDC2 protein level in human HeLa cells Western blotting analysis; type: functional, cell-based
[20] = system: HeLa; assay: Induction of apoptosis in human HeLa cells assessed as cell shrinkage, nuclear fragmentation and condensation dispersed throughout cytoplasm at 0.5 uM after 48 hrs by immunofluorescence analysis; type: functional, cell-based
[21] = system: DNA; assay: Binding affinity to calf thymus DNA assessed as reduction in intensity of positive band at 5 to 40 ug/ml after 24 hrs by circular dichroism analysis; type: nucleic-acid assay; settings: Bos taurus
[22] = system: HeLa; assay: Cell cycle arrest in human HeLa cells assessed as accumulation at S phase at 1 uM after 24 hrs using propidium iodide staining by FACS analysis (reference value: 27.1%); type: functional
[23] = system: HeLa; assay: Induction of apoptosis in human HeLa cells assessed as late apoptotic cells at 0.5 uM after 24 hrs using annexin V-FITC/PI and Hoechst 33258 staining by FACS analysis (reference value: 2.39%); type: functional
[24] = system: HeLa; assay: Increase of p53 protein level in human HeLa cells Western blotting analysis; type: functional, cell-based
[25] = system: HeLa; assay: Induction of apoptosis in human HeLa cells assessed as late apoptotic cells at 0.25 uM after 24 hrs using annexin V-FITC/PI and Hoechst 33258 staining by FACS analysis (reference value: 2.39%); type: functional
[26] = system: HeLa; assay: Cell cycle arrest in human HeLa cells assessed as accumulation at G2/M phase at 1 uM after 24 hrs using propidium iodide staining by FACS analysis (reference value: 24.4%); type: functional
[27] = system: HeLa; assay: Cell cycle arrest in human HeLa cells assessed as accumulation at G2/M phase after 24 hrs using propidium iodide staining by FACS analysis; type: functional, cell-based
[28] = system: HeLa; assay: Cell cycle arrest in human HeLa cells assessed as accumulation at G1 phase at 1 uM after 24 hrs using propidium iodide staining by FACS analysis (reference value: 48.5%); type: functional
[29] = system: HeLa; assay: Cell cycle arrest in human HeLa cells assessed as accumulation at sub-G1 phase at 0.5 uM after 24 hrs using propidium iodide staining by FACS analysis (reference value: 0%); type: functional

CCN1CCN([C@@H]2c3cc4c(cc3[C@@H](c3cc(OC)c(O)c(OC)c3)[C@H]3C(=O)OC[C@@H]32)OCO4)CC1
IC50 [1]: 28.8 µM
IC50 [2]: 19.8 µM
IC50 [3]: 3.81 µM
IC50 [4]: 5.41 µM

COc1cc([C@@H]2c3cc4c(cc3[C@@H](NCCCNc3ccc([N+](=O)[O-])cc3)[C@H]3COC(=O)[C@H]23)OCO4)cc(OC)c1O
IC50 [1]: 43.2 µM
IC50 [2]: 19.7 µM
IC50 [3]: 10.5 µM
IC50 [4]: 22.4 µM

COc1cc([C@@H]2c3cc4c(cc3[C@@H](N3CCN(C5CCCC5)CC3)[C@H]3COC(=O)[C@H]23)OCO4)cc(OC)c1O
IC50 [1]: 14.5 µM
IC50 [2]: 10.2 µM
IC50 [3]: 11.6 µM
IC50 [4]: 8.42 µM

COc1cc([C@@H]2c3cc4c(cc3[C@@H](N3CCN(c5ccc([N+](=O)[O-])cc5)CC3)[C@H]3COC(=O)[C@H]23)OCO4)cc(OC)c1O
Activity [5]: tde
Activity [6]: Active
Activity [7]: tde
Activity [8]: 4.9%
IC50 [1]: 0.16 µM
Activity [9]: tde
Activity [10]: Dose-dependent effect
Activity [11]: Active
Activity [12]: 3.99%
Activity [13]: 4.88%
Activity [14]: 35.4%
Activity [15]: Active
Activity [16]: 5.9%
Activity [17]: Dose-dependent effect
Activity [18]: 58.7%
IC50 [2]: 2.12 µM
Activity [19]: Dose-dependent effect
Activity [20]: Active
IC50 [3]: 0.07 µM
Activity [21]: Active
Activity [22]: 28.6%
Activity [23]: 4.76%
Activity [24]: Dose-dependent effect
Activity [25]: 3.54%
Activity [26]: 71.4%
Activity [27]: Dose-dependent effect
Activity [28]: 0.1%
Activity [29]: 1%
IC50 [4]: 1.43 µM

COc1cc([C@@H]2c3cc4c(cc3[C@@H](O[C@@H]3O[C@@H]5CO[C@@H](C)O[C@H]5[C@H](O)[C@H]3O)[C@H]3COC(=O)[C@H]23)OCO4)cc(OC)c1O [ETOPOSIDE]
IC50 [2]: 6.54 µM
IC50 [3]: 4.73 µM
IC50 [4]: 11.5 µM

COc1cc([C@@H]2c3cc4c(cc3[C@@H](N3CCN(c5ccc(F)cc5)CC3)[C@H]3COC(=O)[C@H]23)OCO4)cc(OC)c1O
IC50 [1]: 27.3 µM
IC50 [2]: 14.3 µM
IC50 [3]: 13.6 µM
IC50 [4]: 20.6 µM

COc1cc([C@@H]2c3cc4c(cc3[C@@H](Nc3ccc(S(=O)(=O)N5CCN(c6ccc(F)cc6)CC5)cc3)[C@H]3COC(=O)[C@H]23)OCO4)cc(OC)c1O
IC50 [1]: 57.3 µM
IC50 [2]: 30.4 µM
IC50 [3]: 21.9 µM
IC50 [4]: 54.4 µM

COc1cc([C@@H]2c3cc4c(cc3[C@@H](Nc3ccc(S(=O)(=O)NC5CCCC5)cc3)[C@H]3COC(=O)[C@H]23)OCO4)cc(OC)c1O
IC50 [1]: 52.4 µM
IC50 [2]: 38.7 µM
IC50 [3]: 35.2 µM
IC50 [4]: 47.6 µM

COc1cc([C@@H]2c3cc4c(cc3[C@@H](NCCNc3ccc([N+](=O)[O-])cc3)[C@H]3COC(=O)[C@H]23)OCO4)cc(OC)c1O
IC50 [1]: 25.8 µM
IC50 [2]: 14.8 µM
IC50 [3]: 14.8 µM
IC50 [4]: 32.3 µM

COc1cc([C@@H]2c3cc4c(cc3[C@@H](Nc3ccc(S(=O)(=O)N5CCN(c6ccc([N+](=O)[O-])cc6)CC5)cc3)[C@H]3COC(=O)[C@H]23)OCO4)cc(OC)c1O
IC50 [1]: 42.3 µM
IC50 [2]: 32.5 µM
IC50 [3]: 27.8 µM
IC50 [4]: 38.6 µM

COc1cc([C@@H]2c3cc4c(cc3[C@@H](N3CCN(C)CC3)[C@H]3COC(=O)[C@H]23)OCO4)cc(OC)c1O
IC50 [1]: 26.4 µM
IC50 [2]: 12.4 µM
IC50 [3]: 3.4 µM
IC50 [4]: 2.72 µM
